Test system: YAP/TAZ-TEAD transcription
Test: Reporter gene assay for measuring the inhibition of YAP/TAZ-TEAD transcription (TEAD-responsive element luciferase reporter in Hek293T cells)
Format: cell-based
Details: Homo sapiens, HEK-293T, 24 hours incubation
Method in brief: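 Hek293T cells transiently transfected with a TEAD-responsive element luciferase reporter were plated onto compounds and incubated 24 h at 37 °C/5% CO2. SteadyLite luminescence gave percent inhibition, normalised to vehicle (0%) and positive control inhibitor (100%); EC50 derived.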

Structure (SMILES) | EC50
CNS(=O)(=O)CCNc1ccc(-c2ccc(Cl)cc2)cc1-c1ccn(Cc2cccnc2)n1 [compound 106, 2-((4′-chloro-3-(1-(pyridin-3-ylmethyl)-1H-pyrazol-3-yl)-[1,1′-biphenyl]-4-yl)amino)-N-methylethane-1-sulfonamide] | < 1000 nM
O=S(=O)(O)CCNc1ccc(-c2ccc(Cl)cc2)cc1-c1ccn(Cc2cccnc2)n1 [compound 107, 2-((4′-chloro-3-(1-(pyridin-3-ylmethyl)-1H-pyrazol-3-yl)-[1,1′-biphenyl]-4-yl)amino)ethane-1-sulfonic acid] | > 20000 nM
CNS(=O)(=O)CCNc1ccc(-c2cnn(C)c2)cc1-c1ccn(Cc2cccnc2)n1 [compound 108, N-methyl-2-((4-(1-methyl-1H-pyrazol-4-yl)-2-(1-(pyridin-3-ylmethyl)-1H-pyrazol-3-yl)phenyl)amino)ethane-1-sulfonamide] | 1000 to 20000 nM
Cn1ccc(-c2ccc(NCCS(=O)(=O)O)c(-c3ccn(Cc4cccnc4)n3)c2)n1 [compound 109, 2-((4-(1-methyl-1H-pyrazol-3-yl)-2-(1-(pyridin-3-ylmethyl)-1H-pyrazol-3-yl)phenyl)amino)ethane-1-sulfonic acid] | > 20000 nM
COc1ccc(-c2ccc(NCCS(=O)(=O)F)c(-c3ccn(Cc4cccnc4)n3)c2)cc1 [compound 110, 2-((4′-methoxy-3-(1-(pyridin-3-ylmethyl)-1H-pyrazol-3-yl)-[1,1′-biphenyl]-4-yl)amino)ethane-1-sulfonyl fluoride] | 1000 to 20000 nM
CNS(=O)(=O)CCNc1ccc(-c2ccc(OC)cc2)cc1-c1ccn(Cc2cccnc2)n1 [compound 111, 2-((4′-methoxy-3-(1-(pyridin-3-ylmethyl)-1H-pyrazol-3-yl)-[1,1′-biphenyl]-4-yl)amino)-N-methylethane-1-sulfonamide] | < 1000 nM
CNS(=O)(=O)CCNc1ccc(-c2ccc(C(F)(F)F)cc2)cc1-c1ccn(CCO)n1 [compound 112, 2-((3-(1-(2-hydroxyethyl)-1H-pyrazol-3-yl)-4′-(trifluoromethyl)-[1,1′-biphenyl]-4-yl)amino)-N-methylethane-1-sulfonamide] | < 1000 nM
CNS(=O)(=O)CCNc1ccc(-c2ccccc2)cc1-c1ccn(Cc2cccc(C(N)=O)c2)n1 [compound 113, 3-((3-(4-((2-(N-methylsulfamoyl)ethyl)amino)-[1,1′-biphenyl]-3-yl)-1H-pyrazol-1-yl)methyl)benzamide] | < 1000 nM
CNS(=O)(=O)CCNc1ccc(-c2ccccn2)cc1-c1ccn(Cc2cccnc2)n1 [compound 114, N-methyl-2-((4-(pyridin-2-yl)-2-(1-(pyridin-3-ylmethyl)-1H-pyrazol-3-yl)phenyl)amino)ethane-1-sulfonamide] | 1000 to 20000 nM
CNS(=O)(=O)CCNc1ccc(Cc2ccccc2)cc1-c1ccn(Cc2cccnc2)n1 [compound 115, 2-((4-benzyl-2-(1-(pyridin-3-ylmethyl)-1H-pyrazol-3-yl)phenyl)amino)-N-methylethane-1-sulfonamide] | < 1000 nM
CNS(=O)(=O)CCNc1ccc(Nc2ccccc2)cc1-c1ccn(Cc2cccnc2)n1 [compound 116, N-methyl-2-((4-(phenylamino)-2-(1-(pyridin-3-ylmethyl)-1H-pyrazol-3-yl)phenyl)amino)ethane-1-sulfonamide] | < 1000 nM
CNS(=O)(=O)CCNc1ccc(-c2cccc(C(F)(F)F)c2)cc1-c1ccn(C)n1 [compound 120] | < 1000 nM
CNS(=O)(=O)CCNc1ccc(-c2cccc(Cl)c2)cc1-c1ccn(C)n1 [compound 122, 2-((3′-chloro-3-(1-methyl-1H-pyrazol-3-yl)-[1,1′-biphenyl]-4-yl)amino)-N-methylethane-1-sulfonamide] | < 1000 nM
CNS(=O)(=O)CCNc1ccc(-c2cc(F)ccc2F)cc1-c1ccn(C)n1 [compound 123, 2-((2′,5′-difluoro-3-(1-methyl-1H-pyrazol-3-yl)-[1,1′-biphenyl]-4-yl)amino)-N-methylethane-1-sulfonamide] | < 1000 nM
CNS(=O)(=O)CCNc1ccc(-c2cccc(F)c2F)cc1-c1ccn(C)n1 [compound 125, 2-((2′,3′-difluoro-3-(1-methyl-1H-pyrazol-3-yl)-[1,1′-biphenyl]-4-yl)amino)-N-methylethane-1-sulfonamide] | < 1000 nM
CNS(=O)(=O)CCNc1ccc(-c2cc(F)cc(F)c2)cc1-c1ccn(C)n1 [compound 126, 2-((3′,5′-difluoro-3-(1-methyl-1H-pyrazol-3-yl)-[1,1′-biphenyl]-4-yl)amino)-N-methylethane-1-sulfonamide] | < 1000 nM
CNS(=O)(=O)CCNc1ccc(-c2ccc(C(F)(F)F)c(F)c2)cc1-c1ccn(C)n1 [compound 127, 2-((3′-fluoro-3-(1-methyl-1H-pyrazol-3-yl)-4′-(trifluoromethyl)-[1,1′-biphenyl]-4-yl)amino)-N-methylethane-1-sulfonamide] | < 1000 nM
CNS(=O)(=O)CCNc1ccc(-c2cc(F)cc(C(F)(F)F)c2)cc1-c1ccn(C)n1 [compound 128, 2-((3′-fluoro-3-(1-methyl-1H-pyrazol-3-yl)-5′-(trifluoromethyl)-[1,1′-biphenyl]-4-yl)amino)-N-methylethane-1-sulfonamide] | < 1000 nM

Structure (SMILES) | EC50
CNS(=O)(=O)CCNc1ccc(-c2cccc(OC(F)(F)F)c2)cc1-c1ccn(C)n1 [compound 129, N-methyl-2-((3-(1-methyl-1H-pyrazol-3-yl)-3′-(trifluoromethoxy)-[1,1′-biphenyl]-4-yl)amino)ethane-1-sulfonamide] | 1000 to 20000 nM
CNS(=O)(=O)CCNc1cnc(-c2ccc(C(F)(F)F)cc2)cc1-c1ccn(C(F)F)n1 [compound 130, 2-((4-(1-(difluoromethyl)-1H-pyrazol-3-yl)-6-(4-(trifluoromethyl)phenyl)pyridin-3-yl)amino)-N-methylethane-1-sulfonamide] | < 1000 nM
CN(C)S(=O)(=O)CCNc1ccc(-c2ccc(F)cc2)nc1-c1ccn(C(F)F)n1 [compound 133, 2-((2-(1-(difluoromethyl)-1H-pyrazol-3-yl)-6-(4-fluorophenyl)pyridin-3-yl)amino)-N,N-dimethylethane-1-sulfonamide] | < 1000 nM
CNS(=O)(=O)CCNc1ccc(-c2ccc(C(F)(F)F)cc2)nc1-c1ccn(C(F)F)n1 [compound 134, 2-((2-(1-(difluoromethyl)-1H-pyrazol-3-yl)-6-(4-(trifluoromethyl)phenyl)pyridin-3-yl)amino)-N-methylethane-1-sulfonamide] | < 1000 nM
C=CC(=O)NCc1ccc(-c2ccccc2)cc1-c1ccn(Cc2cccnc2)n1 [compound 136, N-((3-(1-(pyridin-3-ylmethyl)-1H-pyrazol-3-yl)-[1,1′-biphenyl]-4-yl)methyl)acrylamide] | < 1000 nM
CCC(=O)NCc1cc(-c2ccccc2)cc(-c2ccn(C)n2)c1 [compound 138, N-((5-(1-methyl-1H-pyrazol-3-yl)-[1,1′-biphenyl]-3-yl)methyl)propionamide] | 1000 to 20000 nM
C=CC(=O)NCc1cc(-c2ccccc2)cc(-c2ccn(Cc3cccnc3)n2)c1 [compound 139, N-((5-(1-(pyridin-3-ylmethyl)-1H-pyrazol-3-yl)-[1,1′-biphenyl]-3-yl)methyl)acrylamide] | < 1000 nM
C=CC(=O)NCc1ccc(-c2ccc(C(F)(F)F)cc2F)cc1-c1ccn(C)n1 [compound 146, N-((2′-fluoro-3-(1-methyl-1H-pyrazol-3-yl)-4′-(trifluoromethyl)-[1,1′-biphenyl]-4-yl)methyl)acrylamide] | < 1000 nM
C=CC(=O)NCc1ccc(-c2ccc(C(F)(F)F)cn2)cc1-c1ccn(C)n1 [compound 147, N-(2-(1-methyl-1H-pyrazol-3-yl)-4-(5-(trifluoromethyl)pyridin-2-yl)benzyl)acrylamide] | < 1000 nM
C=CC(=O)NCc1ccc(-c2ccc(C(F)(F)F)nc2)cc1-c1ccn(C)n1 [compound 148, N-(2-(1-methyl-1H-pyrazol-3-yl)-4-(6-(trifluoromethyl)pyridin-3-yl)benzyl)acrylamide] | < 1000 nM
C=CC(=O)NCc1ccc(-c2ccc(F)cc2)cc1-c1ccn(C(C)C)n1 [compound 150, N-((4′-fluoro-3-(1-isopropyl-1H-pyrazol-3-yl)-[1,1′-biphenyl]-4-yl)methyl)acrylamide] | < 1000 nM
C=CC(=O)NCc1ccc(-c2ccc(F)cc2)cc1-c1ccn(CCO)n1 [compound 151, N-((4′-fluoro-3-(1-(2-hydroxyethyl)-1H-pyrazol-3-yl)-[1,1′-biphenyl]-4-yl)methyl)acrylamide] | < 1000 nM
C=CC(=O)NCc1ccc(-c2ccc(F)cc2)cc1-c1ccn(CC(C)C)n1 [compound 152, N-((4′-fluoro-3-(1-isobutyl-1H-pyrazol-3-yl)-[1,1′-biphenyl]-4-yl)methyl)acrylamide] | < 1000 nM
C=CC(=O)NCc1ccc(-c2ccc(F)cc2)cc1-c1ccn(C2COC2)n1 [compound 154, N-((4′-fluoro-3-(1-(oxetan-3-yl)-1H-pyrazol-3-yl)-[1,1′-biphenyl]-4-yl)methyl)acrylamide] | < 1000 nM
C=CC(=O)NCc1ccc(-c2ccc(F)cc2)cc1-c1ccn(CCOC(F)(F)F)n1 [compound 155, N-((4′-fluoro-3-(1-(2-(trifluoromethoxy)ethyl)-1H-pyrazol-3-yl)-[1,1′-biphenyl]-4-yl)methyl)acrylamide] | 1000 to 20000 nM
C=CC(=O)NCc1ccc(-c2ccc(C(F)(F)F)cc2)cc1-c1ccn(CCOC)n1 [compound 156, N-((3-(1-(2-methoxyethyl)-1H-pyrazol-3-yl)-4′-(trifluoromethyl)-[1,1′-biphenyl]-4-yl)methyl)acrylamide] | < 1000 nM
C=CC(=O)NCc1ccc(-c2ccc(Cl)cc2)cc1-c1ccn(C2CC2)n1 [compound 158, N-((4′-chloro-3-(1-cyclopropyl-1H-pyrazol-3-yl)-[1,1′-biphenyl]-4-yl)methyl)acrylamide] | < 1000 nM
C=CC(=O)NCc1ccc(-c2ccc(F)cc2)cc1-c1ccn(CC2COC2)n1 [compound 159, N-((4′-fluoro-3-(1-(oxetan-3-ylmethyl)-1H-pyrazol-3-yl)-[1,1′-biphenyl]-4-yl)methyl)acrylamide] | < 1000 nM

Source: patent publication US12552772B2, “2-pyrazole anilines and related analogs for inhibiting YAP/TAZ-TEAD” (KATHOLIEKE UNIVERSITEIT LEUVEN, priority 2021, dated 2026)
